Data as given in ChEMBL document CHEMBL1201862, “PubChem BioAssay data set” (2004).
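Dose response: 5 concentrations. Exposure: 48 h. Format: 96-well plates. Endpoint: linear interpolation; highest concentration if not reached. GI50 is the concentration that inhibits growth by half.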 Activity calls are given as the source filed them. Rule as the data show it: active = GI50 up to about 1.1 µM and inactive = higher.

Key:
Assay in all cases: growth of human tumour cells (NCI), 48 h
786-0 = test system: 786-0
A549 = test system: A549
ACHN = test system: ACHN
CAKI-1 = test system: CAKI-1
CCRF-CEM = test system: CCRF-CEM
COLO 205 = test system: COLO 205
DLD-1 = test system: DLD-1
DMS-114 = test system: DMS-114
DMS-273 = test system: DMS-273
EKVX = test system: EKVX
HCC 2998 = test system: HCC 2998
HCT-116 = test system: HCT-116
HCT-15 = test system: HCT-15
HL-60 = test system: HL-60
HOP-18 = test system: HOP-18
HOP-62 = test system: HOP-62
HT-29 = test system: HT-29
IGROV-1 = test system: IGROV-1
K562 = test system: K562
KM-20L2 = test system: KM-20L2
KM12 = test system: KM12
LOX IMVI = test system: LOX IMVI
LXFL 529 = test system: LXFL 529
M14 = test system: M14
M19-MEL = test system: M19-MEL
MOLT-4 = test system: MOLT-4
Malme-3M = test system: Malme-3M
NCI-H226 = test system: NCI-H226
NCI-H23 = test system: NCI-H23
NCI-H460 = test system: NCI-H460
NCI-H522 = test system: NCI-H522
OVCAR-3 = test system: OVCAR-3
OVCAR-4 = test system: OVCAR-4
OVCAR-5 = test system: OVCAR-5
OVCAR-8 = test system: OVCAR-8
RPMI-8226 = test system: RPMI-8226
RXF 393 = test system: RXF 393
SF-268 = test system: SF-268
SF-295 = test system: SF-295
SF-539 = test system: SF-539
SK-MEL-28 = test system: SK-MEL-28
SK-MEL-2 = test system: SK-MEL-2
SK-MEL-5 = test system: SK-MEL-5
SK-OV-3 = test system: SK-OV-3
SN12C = test system: SN12C
SNB-19 = test system: SNB-19
SNB-75 = test system: SNB-75
SNB-78 = test system: SNB-78
SW-620 = test system: SW-620
TK-10 = test system: TK-10
U-251 = test system: U-251
UACC-257 = test system: UACC-257
UACC-62 = test system: UACC-62
UO-31 = test system: UO-31
XF498 = test system: XF498
A498 = test system: A498
BT-549 = test system: BT-549
DU-145 = test system: DU-145
HOP-92 = test system: HOP-92
Hs-578T = test system: Hs-578T
MCF7 = test system: MCF7
MDA-MB-231 = test system: MDA-MB-231
MDA-MB-435 = test system: MDA-MB-435
MDA-N = test system: MDA-N
NCI/ADR-RES = test system: NCI/ADR-RES
PC-3 = test system: PC-3
SR = test system: SR
T47D = test system: T47D

COC(=O)/C(C#N)=C1\CCC(OC)N1C (stereo not given)
GI50 (786-0): > 100 µM (inactive)
GI50 (A549): > 100 µM (inactive)
GI50 (ACHN): > 100 µM (inactive)
GI50 (CAKI-1): > 100 µM (inactive)
GI50 (CCRF-CEM): > 100 µM (inactive)
GI50 (COLO 205): > 100 µM (inactive)
GI50 (DLD-1): > 100 µM (inactive)
GI50 (DMS-114): > 100 µM (inactive)
GI50 (DMS-273): > 100 µM (inactive)
GI50 (EKVX): > 100 µM (inactive)
GI50 (HCC 2998): > 100 µM (inactive)
GI50 (HCT-116): > 100 µM (inactive)
GI50 (HCT-15): > 100 µM
GI50 (HL-60): > 100 µM (inactive)
GI50 (HOP-18): > 100 µM (inactive)
GI50 (HOP-62): > 100 µM (inactive)
GI50 (HT-29): > 100 µM (inactive)
GI50 (IGROV-1): > 100 µM (inactive)
GI50 (K562): > 100 µM (inactive)
GI50 (KM-20L2): > 100 µM (inactive)
GI50 (KM12): > 100 µM (inactive)
GI50 (LOX IMVI): > 100 µM (inactive)
GI50 (LXFL 529): > 100 µM (inactive)
GI50 (M14): > 100 µM (inactive)
GI50 (M19-MEL): > 100 µM (inactive)
GI50 (MOLT-4): > 100 µM (inactive)
GI50 (Malme-3M): > 100 µM (inactive)
GI50 (NCI-H226): > 100 µM (inactive)
GI50 (NCI-H23): > 100 µM (inactive)
GI50 (NCI-H460): > 100 µM (inactive)
GI50 (NCI-H522): > 100 µM (inactive)
GI50 (OVCAR-3): > 100 µM (inactive)
GI50 (OVCAR-4): > 100 µM (inactive)
GI50 (OVCAR-5): > 100 µM (inactive)
GI50 (OVCAR-8): > 100 µM (inactive)
GI50 (RPMI-8226): > 100 µM (inactive)
GI50 (RXF 393): > 100 µM (inactive)
GI50 (SF-268): > 100 µM (inactive)
GI50 (SF-295): > 100 µM (inactive)
GI50 (SF-539): > 100 µM (inactive)
GI50 (SK-MEL-28): > 100 µM (inactive)
GI50 (SK-MEL-2): > 100 µM (inactive)
GI50 (SK-MEL-5): > 100 µM (inactive)
GI50 (SK-OV-3): > 100 µM (inactive)
GI50 (SN12C): > 100 µM (inactive)
GI50 (SNB-19): > 100 µM (inactive)
GI50 (SNB-75): > 100 µM (inactive)
GI50 (SNB-78): > 100 µM (inactive)
GI50 (SW-620): > 100 µM (inactive)
GI50 (TK-10): > 100 µM (inactive)
GI50 (U-251): > 100 µM (inactive)
GI50 (UACC-257): > 100 µM (inactive)
GI50 (UACC-62): > 100 µM (inactive)
GI50 (UO-31): > 100 µM (inactive)
GI50 (XF498): > 100 µM (inactive)

O=c1[nH]c(=O)n([C@H]2CCCO2)cc1F
GI50 (786-0): 984 µM (inactive)
GI50 (A498): 501 µM (inactive)
GI50 (A549): 446 µM (inactive)
GI50 (ACHN): 977 µM (inactive)
GI50 (BT-549): 4000 µM (inactive)
GI50 (CAKI-1): 828 µM (inactive)
GI50 (CCRF-CEM): 982 µM (inactive)
GI50 (COLO 205): 673 µM (inactive)
GI50 (DLD-1): 615 µM (inactive)
GI50 (DMS-114): 673 µM (inactive)
GI50 (DMS-273): 561 µM (inactive)
GI50 (DU-145): 748 µM (inactive)
GI50 (EKVX): 393 µM (inactive)
GI50 (HCC 2998): 89.7 µM (inactive)
GI50 (HCT-116): 406 µM (inactive)
GI50 (HCT-15): 678 µM
GI50 (HL-60): 644 µM (inactive)
GI50 (HOP-18): 692 µM (inactive)
GI50 (HOP-62): 547 µM (inactive)
GI50 (HOP-92): > 3120 µM (inactive)
GI50 (HT-29): 649 µM (inactive)
GI50 (Hs-578T): 3230 µM (inactive)
GI50 (IGROV-1): 975 µM (inactive)
GI50 (K562): 968 µM (inactive)
GI50 (KM-20L2): 824 µM (inactive)
GI50 (KM12): 813 µM (inactive)
GI50 (LOX IMVI): 685 µM (inactive)
GI50 (M14): 740 µM (inactive)
GI50 (M19-MEL): 545 µM (inactive)
GI50 (MCF7): 467 µM (inactive)
GI50 (MDA-MB-231): > 2720 µM (inactive)
GI50 (MDA-MB-435): 615 µM (inactive)
GI50 (MDA-N): 1200 µM (inactive)
GI50 (MOLT-4): 830 µM (inactive)
GI50 (Malme-3M): 493 µM (inactive)
GI50 (NCI-H226): 625 µM (inactive)
GI50 (NCI-H23): 759 µM (inactive)
GI50 (NCI-H460): 146 µM (inactive)
GI50 (NCI-H522): 769 µM (inactive)
GI50 (NCI/ADR-RES): 923 µM (inactive)
GI50 (OVCAR-3): 684 µM (inactive)
GI50 (OVCAR-4): 2610 µM (inactive)
GI50 (OVCAR-5): 953 µM (inactive)
GI50 (OVCAR-8): 655 µM (inactive)
GI50 (PC-3): 2510 µM (inactive)
GI50 (RPMI-8226): 385 µM (inactive)
GI50 (RXF 393): 769 µM (inactive)
GI50 (SF-268): 986 µM (inactive)
GI50 (SF-295): 918 µM (inactive)
GI50 (SF-539): 262 µM (inactive)
GI50 (SK-MEL-28): 830 µM (inactive)
GI50 (SK-MEL-2): 719 µM (inactive)
GI50 (SK-MEL-5): 845 µM (inactive)
GI50 (SK-OV-3): 681 µM (inactive)
GI50 (SN12C): 838 µM (inactive)
GI50 (SNB-19): 3920 µM (inactive)
GI50 (SNB-75): 560 µM (inactive)
GI50 (SNB-78): > 1000 µM (inactive)
GI50 (SR): 337 µM (inactive)
GI50 (SW-620): 887 µM (inactive)
GI50 (T47D): > 465 µM (inactive)
GI50 (TK-10): 764 µM (inactive)
GI50 (U-251): 957 µM (inactive)
GI50 (UACC-257): 951 µM (inactive)
GI50 (UACC-62): 569 µM (inactive)
GI50 (UO-31): 869 µM (inactive)
GI50 (XF498): 762 µM (inactive)

Cc1ccc(S(=O)(=O)Oc2cc(-c3ccccc3)nc3ccccc23)cc1
GI50 (A498): 2.36 µM (inactive)
GI50 (A549): 3.15 µM (inactive)
GI50 (CCRF-CEM): 2.89 µM (inactive)
GI50 (COLO 205): 0.544 µM (active)
GI50 (DLD-1): 2.49 µM (inactive)
GI50 (DMS-114): 0.333 µM (active)
GI50 (DMS-273): 1.04 µM (active)
GI50 (EKVX): 19.4 µM (inactive)
GI50 (HCC 2998): 1 µM (active)
GI50 (HCT-116): 2.36 µM (inactive)
GI50 (HCT-15): 1.41 µM
GI50 (HL-60): 1.03 µM (active)
GI50 (HOP-18): 7.62 µM (inactive)
GI50 (HOP-62): 3.73 µM (inactive)
GI50 (HOP-92): 3.83 µM (inactive)
GI50 (HT-29): 1.93 µM (inactive)
GI50 (IGROV-1): 3.85 µM (inactive)
GI50 (K562): 0.869 µM (active)
GI50 (KM-20L2): 1.57 µM (inactive)
GI50 (KM12): 1.2 µM (inactive)
GI50 (LOX IMVI): 8.97 µM (inactive)
GI50 (M19-MEL): 3.3 µM (inactive)
GI50 (MCF7): 0.604 µM (active)
GI50 (MOLT-4): 3.63 µM (inactive)
GI50 (Malme-3M): 1.58 µM (inactive)
GI50 (NCI-H226): 6.4 µM (inactive)
GI50 (NCI-H23): 2.53 µM (inactive)
GI50 (NCI-H460): 1.81 µM (inactive)
GI50 (NCI-H522): 1.13 µM (inactive)
GI50 (NCI/ADR-RES): 1.95 µM (inactive)
GI50 (OVCAR-3): 2.12 µM (inactive)
GI50 (OVCAR-4): 7.33 µM (inactive)
GI50 (OVCAR-5): 15.8 µM (inactive)
GI50 (OVCAR-8): 5.24 µM (inactive)
GI50 (RPMI-8226): 2.61 µM (inactive)
GI50 (RXF 393): 2.95 µM (inactive)
GI50 (SF-268): 8.77 µM (inactive)
GI50 (SF-295): 1.91 µM (inactive)
GI50 (SF-539): 2.08 µM (inactive)
GI50 (SK-MEL-28): 11.3 µM (inactive)
GI50 (SK-MEL-2): 1.98 µM (inactive)
GI50 (SK-MEL-5): 1.42 µM (inactive)
GI50 (SK-OV-3): 2.23 µM (inactive)
GI50 (SN12C): 5.93 µM (inactive)
GI50 (SNB-19): 0.419 µM (active)
GI50 (SNB-75): 1.92 µM (inactive)
GI50 (SNB-78): 7.08 µM (inactive)
GI50 (SW-620): 1.22 µM (inactive)
GI50 (U-251): 2.51 µM (inactive)
GI50 (UACC-257): 10 µM (inactive)
GI50 (UACC-62): 3.01 µM (inactive)
GI50 (UO-31): 6.3 µM (inactive)
GI50 (XF498): 3.91 µM (inactive)
